The subject of one test is E. coli strain ATCC25922. The experiment in a line: MIC, broth microdilution antimicrobial susceptibility test (CLSI). Format: cell-based. The note with it: Escherichia coli, ATCC25922; E. coli ATCC 25922; growth inhibited by ≥90%, 18 h; read-out: MIC^c: Minimum inhibitory concentration against E. coli. The text has this:
(§1) This example illustrates the evaluation of 2,4,6-trisubstituted pyrimidines 14 for their antimicrobial activities against the Gram positive S. aureus strain ATCC29213 and the Gram negative E. coli strain ATCC25922 by measuring their MIC, which is the lowest concentration of an antimicrobial agent that prevents visible growth of a microorganism in a broth dilution susceptibility test according to the standard method approved by the Clinical and Laboratory Standards Institute (CLSI) guidelines.^21
(§2) Procedure of Antimicrobial susceptibility test: The MIC value of compounds was measured in the antimicrobial susceptibility test using the broth microdilution procedure in accordance with the CLSI guidelines.^21 Cation-adjusted Mueller Hinton broth (CA-MHB) was used for all the S. aureus strains in the assay. Cells in exponential phase of growth were diluted to approximately 5×10^5 cfu/mL. Stock solutions of each compound were freshly dissolved in dimethyl sulfoxide (DMSO). Then, serial dilutions of each compound in CA-MHB medium were added into 96-well microplate. The final percentage of DMSO in the assay was 1%. Control experiments were performed with 1% DMSO instead of the compound solution. After being incubated at 37° C. for 18 h, OD600 value of cells was measured on a microplate reader and the percentage of bacterial cell inhibition with respect to controls was calculated. The MIC value was defined as the lowest compound concentration at which the growth of bacteria was inhibited by ≥90%. Three independent assays were performed for each compound.
For orientation: In broth dilution the organism is exposed to a series of concentrations in liquid medium.

Test [1] concerns S. aureus strain ATCC29213. Described as above. Format: cell-based. The following applies: for MIC: Staphylococcus aureus.
Description: as §1, §2

In test [2] the test system is S. aureus ATCC 29247 (ampicillin resistant strain). Put plainly: MIC against clinically isolated strain 1. The class given is cell-based. The following applies: Staphylococcus aureus, ATCC29247. The protocol: as §2
(§3) Results: Three compounds, namely 14av_amine16, 14dv_amine16 and 14dv_amine06, were selected to be tested against nine in-house clinically isolated bacterial strains including S. aureus ATCC29247, which is an ampicillin resistant strain, S. aureus ATCC BAA-41, ATCC BAA-1717, ATCC BAA-1720, ATCC 43300 which are methicillin resistant strains and four USA300 strains, (#417, #757, #1799 and #2690), which are the predominant strain type of community-associated MRSA strains in the United States.

For test [3], the system named is S. aureus ATCC BAA-1717 (methicillin resistant). The experiment in a line: MIC against clinically isolated strain 2. Format: cell-based. The note with it: Staphylococcus aureus, ATCCBAA1717. The protocol: as §2, §3
The test system of test [4] is S. aureus ATCC BAA-1720 (methicillin resistant). The experiment in a line: MIC against clinically isolated strain 3. The class given is cell-based. The following applies: Staphylococcus aureus, ATCCBAA1720. The procedure:
as §2, §3

The test system of test [5] is S. aureus ATCC BAA-41 (methicillin resistant). Put plainly: MIC against clinically isolated strain 4. Format: cell-based. The note with it: Staphylococcus aureus, ATCCBAA41. The protocol:
as §2, §3

For test [6], the system named is S. aureus ATCC 43300 (methicillin resistant). The experiment in a line: MIC against clinically isolated strain 5. The class given is cell-based. The following applies: Staphylococcus aureus, ATCC43300. The protocol:
as §2, §3

Test [7] has as its system USA300 #417 (community-associated MRSA). Put plainly: MIC against clinically isolated strain 6. The note with it: Staphylococcus aureus. The class given is cell-based, S. aureus. The procedure:
as §2, §3

For test [8], the system named is USA300 #757 (community-associated MRSA). Put plainly: MIC against clinically isolated strain 7. The class given is cell-based, S. aureus. The following applies: Staphylococcus aureus. The procedure:
as §2, §3

Test [9] concerns USA300 #1799 (community-associated MRSA). Put plainly: MIC against clinically isolated strain 8. The note with it: Staphylococcus aureus. Format: cell-based, S. aureus. The procedure: as §2, §3
Test [10] concerns USA300 #2690 (community-associated MRSA). Put plainly: MIC against clinically isolated strain 9. Format: cell-based, S. aureus. The note with it: Staphylococcus aureus. The protocol: as §2, §3
The subject of test [11] is clinically isolated S. aureus strains. Put plainly: MIC against the nine clinically isolated S. aureus strains. The class given is cell-based. The note with it: Staphylococcus aureus; most of the MRSA strains. The procedure:
as §2, with “compound. […]” for “compound.”

Values after ≈ are worked out from the molar mass of the structure shown. Where two headings read alike, the source gives them in different places. Where only a bound is given, the exact number is not on record here.

For the compound `FC(F)(F)c1ccc(CN2CCCN(CCc3cc(-c4ccccc4)nc(-c4ccncc4)n3)CC2)cc1` [Compound 14dv_amine16, 1-(2-(6-phenyl-2-(pyridin-4-yl)pyrimidin-4-yl)ethyl)-4-(4-(trifluoromethyl)benzyl)-1,4-diazepane], the MIC in the test with E. coli strain ATCC25922 is > 125 µM; in [1] (ATCC29213, S. aureus 29213, growth inhibited by ≥90%, 18 h, read-out: MIC^b: Minimum inhibitory concentration against S. aureus) it was 5 µM (≈ 2.59 µg/mL); in [1] (S. aureus ATCC29213, read-out: MIC against S. aureus), 5 to 8 µM (≈ 2.59 to 4.14 µg/mL); in test [2], 5 µM (≈ 2.59 µg/mL); in test [3] it was 5 µM (≈ 2.59 µg/mL); in test [4], 10 µM (≈ 5.18 µg/mL). Besides, the MIC in test [5], in test [6], in test [7], in test [8], in [9] and in test [10] was 10 µM (≈ 5.18 µg/mL) throughout. In [1] (E. coli ATCC 25922 MIC over S. aureus 29213 MIC), the “MIC^c/MIC^b: Selectivity index” value is >25.
With `COc1cccc(OC)c1C(=O)N[C@@H]1C(=O)N2[C@@H]1SC(C)(C)[C@@H]2C(=O)O` [Methicillin, reference compound], the MIC in test [3] is > 30 µM; in test [4] it was > 30 µM; in test [5], > 30 µM; in [6], > 30 µM; in test [7], > 30 µM; in test [8], 30 µM (≈ 11.4 µg/mL). The MIC is 30 µM (≈ 11.4 µg/mL) in [9], 15 µM (≈ 5.71 µg/mL) in [10] and > 30 µM in test [11].

These data come from patent US9951039B2, “Pyrimidines for treatment of bacterial infections” (The Hong Kong Polytechnic University, priority 2016, dated 2018).
